Laboratory results reported in PubChem BioAssay AID1259407 (Chemical Carcinogenesis Research Information System (CCRIS), 2018).
Calls of active or inactive are those of the source. How the calls were made is not given here.

System: CCRIS mutagenicity, Ames/micronucleus/aberration tests
Assay: CCRIS mutagenicity studies
[1] = Test System: AMES SALMONELLA TYPHIMURIUM, Strain/Indicator: TA100, Metabolic Activation: NONE, Method: STANDARD PLATE
[2] = Test System: AMES SALMONELLA TYPHIMURIUM, Strain/Indicator: TA100, Metabolic Activation: NONE, Method: PREINCUBATION
[3] = Test System: AMES SALMONELLA TYPHIMURIUM, Strain/Indicator: TA100, Metabolic Activation: RAT, LIVER, S-9, AROCLOR 1254, Method: STANDARD PLATE

## CC(=O)OCC(COC(C)=O)OC(C)=O
Test System: Ames Salmonella typhimurium, Strain/Indicator: TA98, Metabolic Activation: None, Method: Preincubation
  mutagenic call: inactive; negative
Test System: Ames Salmonella typhimurium, Strain/Indicator: TA98, Metabolic Activation: Rat, Liver, S9, Sodium phenobarbital and 5,6-benzoflavone, Method: Preincubation
  mutagenic call: inactive; negative
Test System: Ames Salmonella typhimurium, Strain/Indicator: TA100, Metabolic Activation: None, Method: Preincubation
  mutagenic call: inactive; negative
Test System: Ames Salmonella typhimurium, Strain/Indicator: TA100, Metabolic Activation: Rat, Liver, S9, Sodium phenobarbital and 5,6-benzoflavone, Method: Preincubation
  mutagenic call: inactive; negative
Test System: Ames Salmonella typhimurium, Strain/Indicator: TA1535, Metabolic Activation: None, Method: Preincubation
  mutagenic call: inactive; negative
Test System: Ames Salmonella typhimurium, Strain/Indicator: TA1535, Metabolic Activation: Rat, Liver, S9, Sodium phenobarbital and 5,6-benzoflavone, Method: Preincubation
  mutagenic call: inactive; negative
Test System: Ames Salmonella typhimurium, Strain/Indicator: TA1537, Metabolic Activation: None, Method: Preincubation
  mutagenic call: inactive; negative
Test System: Ames Salmonella typhimurium, Strain/Indicator: TA1537, Metabolic Activation: Rat, Liver, S9, Sodium phenobarbital and 5,6-benzoflavone, Method: Preincubation
  mutagenic call: inactive; negative
Test System: E. coli, Strain/Indicator: WP2uvrA/pKM101, Metabolic Activation: None, Method: Preincubation
  mutagenic call: inactive; negative
Test System: E. coli, Strain/Indicator: WP2uvrA/pKM101, Metabolic Activation: Rat, Liver, S9, Sodium phenobarbital and 5,6-benzoflavone, Method: Preincubation
  mutagenic call: inactive; negative

## Nc1c2ccccc2nc2ccc([N+](=O)[O-])cc12
Test System: AMES SALMONELLA TYPHIMURIUM, Strain/Indicator: TA1537, Metabolic Activation: NONE
  mutagenic call: active; positive
Test System: AMES SALMONELLA TYPHIMURIUM, Strain/Indicator: TA1537, Metabolic Activation: NONE, Method: PREINCUBATION
  mutagenic call: active; positive

## O=[N+]([O-])c1ccc(-c2ccccc2)cc1
Test System: AMES SALMONELLA TYPHIMURIUM, Strain/Indicator: TA98(1,8-DNP6), Metabolic Activation: NONE
  mutagenic call: inactive; negative
Test System: AMES SALMONELLA TYPHIMURIUM, Strain/Indicator: TA98(1,8-DNP6), Metabolic Activation: NONE, Method: STANDARD PLATE
  mutagenic call: active; positive
Test System: AMES SALMONELLA TYPHIMURIUM, Strain/Indicator: TA98(1,8-DNP6), Metabolic Activation: RAT, LIVER, S-9, AROCLOR 1254
  mutagenic call: inactive; negative
Test System: AMES SALMONELLA TYPHIMURIUM, Strain/Indicator: TA98(NR), Metabolic Activation: NONE
  mutagenic call: inactive; negative
Test System: AMES SALMONELLA TYPHIMURIUM, Strain/Indicator: TA98(NR), Metabolic Activation: NONE, Method: STANDARD PLATE
  mutagenic call: inactive; negative
Test System: AMES SALMONELLA TYPHIMURIUM, Strain/Indicator: TA98(NR), Metabolic Activation: RAT, LIVER, S-9, AROCLOR 1254
  mutagenic call: inactive; negative
Test System: AMES SALMONELLA TYPHIMURIUM, Strain/Indicator: TA98, Metabolic Activation: NONE
  mutagenic call: inactive; negative
Test System: AMES SALMONELLA TYPHIMURIUM, Strain/Indicator: TA98, Metabolic Activation: NONE, Method: PREINCUBATION
  mutagenic call: active; positive
Test System: AMES SALMONELLA TYPHIMURIUM, Strain/Indicator: TA98, Metabolic Activation: RAT, LIVER, S-9, AROCLOR 1254
  mutagenic call: inactive; negative
Test System: AMES SALMONELLA TYPHIMURIUM, Strain/Indicator: TA98, Metabolic Activation: RAT, LIVER, S-9, PCB (10%), Method: PREINCUBATION
  mutagenic call: active; positive
Test System: AMES SALMONELLA TYPHIMURIUM, Strain/Indicator: TA98, Metabolic Activation: RAT, LIVER, S-9, PCB, Method: PREINCUBATION
  mutagenic call: active; positive
Test System: AMES SALMONELLA TYPHIMURIUM, Strain/Indicator: TA98, Metabolic Activation: RAT, LIVER, S-100 (CYTOSOL), Method: PREINCUBATION
  mutagenic call: active; positive
Test System: AMES SALMONELLA TYPHIMURIUM, Strain/Indicator: TA98, Metabolic Activation: RAT, LIVER, S-100 (MICROSOMES), Method: PREINCUBATION
  mutagenic call: active; positive
Test System: AMES SALMONELLA TYPHIMURIUM, Strain/Indicator: TA98, Metabolic Activation: S-9, Method: STANDARD PLATE
  mutagenic call: active; positive
Test System: AMES SALMONELLA TYPHIMURIUM, Strain/Indicator: TA100(NR), Metabolic Activation: NONE
  mutagenic call: inactive; negative
Test System: AMES SALMONELLA TYPHIMURIUM, Strain/Indicator: TA100(NR), Metabolic Activation: RAT, LIVER, S-9, AROCLOR 1254
  mutagenic call: inactive; negative
Test System: AMES SALMONELLA TYPHIMURIUM, Strain/Indicator: TA100, Metabolic Activation: NONE
  mutagenic call: inactive; negative
[1]
  mutagenic call: active; positive
Test System: AMES SALMONELLA TYPHIMURIUM, Strain/Indicator: TA100, Metabolic Activation: RAT, LIVER, S-9, AROCLOR 1254
  mutagenic call: inactive; negative
Test System: AMES SALMONELLA TYPHIMURIUM, Strain/Indicator: TA100, Metabolic Activation: S-9, Method: STANDARD PLATE
  mutagenic call: active; positive
Test System: AMES SALMONELLA TYPHIMURIUM, Strain/Indicator: TA104, Metabolic Activation: NONE
  mutagenic call: inactive; negative
Test System: AMES SALMONELLA TYPHIMURIUM, Strain/Indicator: TA104, Metabolic Activation: RAT, LIVER, S-9, AROCLOR 1254
  mutagenic call: inactive; negative
Test System: CHINESE HAMSTER OVARY, Strain/Indicator: CHO-K1-BH4 (HGPRT), Metabolic Activation: NONE, Method: SUSPENSION/PLATE
  mutagenic call: inactive; negative
Test System: CHINESE HAMSTER OVARY, Strain/Indicator: CHO-K1-BH4 (HGPRT), Metabolic Activation: RAT, LIVER, S-9, AROCLOR, Method: SUSPENSION/PLATE
  mutagenic call: inactive; negative
Test System: UDS RAT HEPATOCYTES, Strain/Indicator: THY INCORP, Metabolic Activation: NONE, Method: AUTORADIOGRAPHY (SERUM-FREE MEDIA)
  mutagenic call: active; positive

## O=C(/C=C/c1ccccc1)c1ccccc1
Test System: AMES SALMONELLA TYPHIMURIUM, Strain/Indicator: TA98, Metabolic Activation: NONE, Method: STANDARD PLATE
  mutagenic call: inactive; negative
Test System: AMES SALMONELLA TYPHIMURIUM, Strain/Indicator: TA98, Metabolic Activation: RAT, LIVER, S-9, AROCLOR 1254, Method: STANDARD PLATE
  mutagenic call: inactive; negative
[2]
  mutagenic call: inactive; negative
[1]
  mutagenic call: inactive; negative
Test System: AMES SALMONELLA TYPHIMURIUM, Strain/Indicator: TA100, Metabolic Activation: RAT, LIVER, S-9, AROCLOR 1254, Method: PREINCUBATION
  mutagenic call: inactive; negative
[3]
  mutagenic call: inactive; negative

## O[C@@H]1C=Cc2c(ccc3cc4c(ccc5ccccc54)cc23)[C@H]1O
[3]
  mutagenic call: active; positive

## OCC(O)CCl (centres undefined)
Test System: AMES SALMONELLA TYPHIMURIUM, Strain/Indicator: TA97, Metabolic Activation: HAMSTER, LIVER, S-9, AROCLOR 1254 (10%), Method: PREINCUBATION
  mutagenic call: inactive; negative
Test System: AMES SALMONELLA TYPHIMURIUM, Strain/Indicator: TA97, Metabolic Activation: RAT, LIVER, S-9, AROCLOR 1254 (10%), Method: PREINCUBATION
  mutagenic call: inactive; negative
Test System: AMES SALMONELLA TYPHIMURIUM, Strain/Indicator: TA98, Metabolic Activation: HAMSTER, LIVER, S-9, AROCLOR 1254 (10%), Method: PREINCUBATION
  mutagenic call: inactive; negative
Test System: AMES SALMONELLA TYPHIMURIUM, Strain/Indicator: TA98, Metabolic Activation: RAT, LIVER, S-9, AROCLOR 1254 (10%), Method: PREINCUBATION
  mutagenic call: inactive; negative
Test System: AMES SALMONELLA TYPHIMURIUM, Strain/Indicator: TA98, Metabolic Activation: RAT, LIVER, S-9, KANECHLOR 500, Method: PREINCUBATION
  mutagenic call: inactive; negative
Test System: AMES SALMONELLA TYPHIMURIUM, Strain/Indicator: TA100, Metabolic Activation: HAMSTER, LIVER, S-9, AROCLOR 1254 (10%), Method: PREINCUBATION
  mutagenic call: active; positive
[2]
  mutagenic call: active; positive
Test System: AMES SALMONELLA TYPHIMURIUM, Strain/Indicator: TA100, Metabolic Activation: RAT, LIVER, S-9, AROCLOR 1254 (10%), Method: PREINCUBATION
  mutagenic call: active; positive
Test System: AMES SALMONELLA TYPHIMURIUM, Strain/Indicator: TA100, Metabolic Activation: RAT, LIVER, S-9, KANECHLOR 500, Method: PREINCUBATION
  mutagenic call: inactive; negative
Test System: AMES SALMONELLA TYPHIMURIUM, Strain/Indicator: TA1535, Metabolic Activation: HAMSTER, LIVER, S-9, AROCLOR 1254 (10%), Method: PREINCUBATION
  mutagenic call: active; positive
Test System: AMES SALMONELLA TYPHIMURIUM, Strain/Indicator: TA1535, Metabolic Activation: NONE, Method: PREINCUBATION
  mutagenic call: active; positive
Test System: AMES SALMONELLA TYPHIMURIUM, Strain/Indicator: TA1535, Metabolic Activation: RAT, LIVER, S-9, AROCLOR 1254 (10%), Method: PREINCUBATION
  mutagenic call: active; positive

## O.O=P([O-])([O-])[O-].[Fe+3]
Test System: MOUSE LYMPHOMA, Strain/Indicator: L5178Y (TK+/TK-), Metabolic Activation: NONE, Method: SUSPENSION/PLATE
  mutagenic call: inactive; negative. reevaluation of results: negative
Test System: MOUSE LYMPHOMA, Strain/Indicator: L5178Y (TK+/TK-), Metabolic Activation: RAT, LIVER, S-9, AROCLOR 1254, Method: SUSPENSION/PLATE
  mutagenic call: active; positive
Test System: Mouse lymphoma, Strain/Indicator: L5178Y (tk+/tk-), Metabolic Activation: Rat, Liver, S-9, Aroclor 1254, Method: Suspension/plate
  mutagenic call: active; equivocal (previous evaluation positive)
